According to patent publication US20240043386A1, “Modulators of the Cystic Fibrosis Transmembrane Conductance Regulator Protein and Methods of Use” (AbbVie Global Enterprises Ltd., priority 2021, published 2024):
pEC50: −log10 of the molar value. Read-outs that look alike come from different tables or passages of the source.

What was measured:
[1] = target: T1, F508del/F508del CFTR (Homo sapiens, UniProt P13569, DEL508-508); assay: Trans-Epithelial Current Clamp (TECC) assay using primary human bronchial epithelial cells; format: cell-based; conditions: for Emax (% Dual): maximum percent activity relative to positive control (co-corrector 0.15 μM + potentiator 0.45 μM = 100%), primary hBE cells F508del/F508del; for pEC50: primary hBE cells homozygous F508del/F508del, test C2 corrector with co-corrector and potentiator, 18-24 hours at 37° C., equivalent CFTR current (IEQ)/AUC
T1 construct: cells isolated from CF patients with the homozygous mutation; endogenous in cells; host or cells: primary human bronchial epithelial (hBE) cells from CF patients homozygous for F508del
T1 sequence (P13569 with tags, fused parts or gaps DEL508-508): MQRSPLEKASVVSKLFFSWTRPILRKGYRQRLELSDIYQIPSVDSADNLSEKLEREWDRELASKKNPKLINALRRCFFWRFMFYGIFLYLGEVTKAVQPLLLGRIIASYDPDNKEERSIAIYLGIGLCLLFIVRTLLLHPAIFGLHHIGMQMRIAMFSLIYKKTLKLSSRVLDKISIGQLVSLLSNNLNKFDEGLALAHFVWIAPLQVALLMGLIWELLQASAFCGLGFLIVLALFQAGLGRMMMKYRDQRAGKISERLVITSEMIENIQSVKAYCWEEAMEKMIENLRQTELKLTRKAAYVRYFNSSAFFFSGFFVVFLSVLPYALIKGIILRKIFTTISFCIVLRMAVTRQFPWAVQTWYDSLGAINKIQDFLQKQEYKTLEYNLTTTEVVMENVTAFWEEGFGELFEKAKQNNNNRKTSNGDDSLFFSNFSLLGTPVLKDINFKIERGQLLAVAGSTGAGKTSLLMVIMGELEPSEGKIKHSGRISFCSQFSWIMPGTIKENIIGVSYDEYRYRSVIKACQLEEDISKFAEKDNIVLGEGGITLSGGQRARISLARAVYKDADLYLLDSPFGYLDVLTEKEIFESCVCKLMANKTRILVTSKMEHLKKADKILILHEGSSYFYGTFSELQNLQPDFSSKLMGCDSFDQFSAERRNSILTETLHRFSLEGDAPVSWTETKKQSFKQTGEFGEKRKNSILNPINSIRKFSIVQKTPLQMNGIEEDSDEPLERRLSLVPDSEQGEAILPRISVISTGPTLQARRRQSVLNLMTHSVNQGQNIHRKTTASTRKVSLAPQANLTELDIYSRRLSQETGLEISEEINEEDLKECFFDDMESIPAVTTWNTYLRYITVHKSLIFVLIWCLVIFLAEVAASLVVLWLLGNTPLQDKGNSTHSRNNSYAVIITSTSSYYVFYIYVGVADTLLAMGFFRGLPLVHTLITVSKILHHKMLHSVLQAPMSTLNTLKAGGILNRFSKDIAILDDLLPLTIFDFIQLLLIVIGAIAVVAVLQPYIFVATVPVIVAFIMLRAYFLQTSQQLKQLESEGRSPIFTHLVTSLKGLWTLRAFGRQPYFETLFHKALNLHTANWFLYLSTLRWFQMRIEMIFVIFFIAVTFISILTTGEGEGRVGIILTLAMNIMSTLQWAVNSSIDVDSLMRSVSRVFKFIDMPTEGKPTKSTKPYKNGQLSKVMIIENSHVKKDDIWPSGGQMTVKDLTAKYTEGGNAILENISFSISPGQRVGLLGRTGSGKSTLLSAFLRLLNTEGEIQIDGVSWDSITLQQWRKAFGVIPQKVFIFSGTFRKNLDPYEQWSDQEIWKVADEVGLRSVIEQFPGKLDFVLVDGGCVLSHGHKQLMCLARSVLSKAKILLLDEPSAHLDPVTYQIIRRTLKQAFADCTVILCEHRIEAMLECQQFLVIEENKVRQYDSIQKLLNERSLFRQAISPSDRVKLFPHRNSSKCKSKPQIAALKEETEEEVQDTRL
Method in brief: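 Readout is the equivalent CFTR current (IEQ, from offset-corrected VT and RT) plus AUC from forskolin peak to bumetanide addition, recorded on TECC-24 at 36.5° C. Beforehand, homozygous F508del hBE cultures received correctors with co-corrector and potentiator basolaterally for 18-24 h at 37° C.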

[2] = target: T2, F508delCFTR (Homo sapiens, UniProt P13569, DEL508-508); assay: Cell Surface Expression-Horse Radish Peroxidase (CSE-HRP) assay in CFBE41o-F508delCFTR-HRP cells; format: cell-based; conditions: for pEC50: CFBE41o-F508delCFTR-HRP cells, 18-24 hours at 33° C., luminescence; for Maximum % activity (with co-corrector) / Maximum % activity (without co-corrector): normalized to on-plate positive control corrector (2 μM)
T2 construct: expressed in transfected cells; host or cells: CFBE41o- human lung-derived epithelial cell line, doxycycline-inducible expression
T2 sequence (P13569 with tags, fused parts or gaps DEL508-508): as above
Method in brief: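 Test compounds were tested alone or alongside a co-corrector (2 μM), 8-point 3-fold series from 20 or 30 μM, for 18–24 h at 33 °C on doxycycline-induced CFBE41o-F508delCFTR-HRP cells. After washing, luminol luminescence reported cell-surface HRP-tagged CFTR, normalized to the positive control (% activity). EC50 was fitted with a variable Hill slope sigmoid from triplicate plates; Z′ >0.5 required.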

[3] = with co-corrector (2 μM), read-out: EC50 (with co-corrector)
[4] = without co-corrector, read-out: EC50 (without co-corrector)

Row | Structure (SMILES) | Emax (% Dual) [1] [% Dual] | pEC50 [1] | pEC50 [2, 3] | Maximum % activity (with co-corrector) ([2]; with co-corrector (2 μM)) [%] | pEC50 [2, 4] | Maximum % activity (without co-corrector) ([2]; without co-corrector) [%]
1 | COc1ccc(C)cc1[C@@]1(C(=O)NS(=O)(=O)c2cccc3nc(C)ccc23)C[C@H]1c1cncc(F)c1 (single isomer, unassigned) [Example 53] | 169 | < 6.52 | 5.58 | 625 | 5.40 | 229
2 | COc1ccc(C)cc1[C@]1(C(=O)NS(=O)(=O)c2cccc3nc(C)ccc23)C[C@@H]1c1cncc(F)c1 (single isomer, unassigned) [Example 54] | 355 | 7.29 | 5.70 |  | 5.53 | 890
3 | COc1ccc(C)cc1[C@@]1(C(=O)NS(=O)(=O)c2cccc3nc(C)ccc23)C[C@H]1c1cnc(C(C)C)cn1 (single isomer, unassigned) [Example 63] | 315 | 7.01 | 6.05 | 847 | 5.76 | 399
4 | CCOc1cnc([C@@H]2C[C@]2(C(=O)NS(=O)(=O)c2cccc3nc(C)ccc23)c2cc(C)ccc2OC)cn1 (single isomer, unassigned) [Example 65] | 208 | 7.71 | 6.23 | 828 | 5.87 | 394
5 | CCOc1ncccc1[C@@H]1C[C@]1(C(=O)NS(=O)(=O)c1cccc2nc(C)ccc12)c1cc(C)ccc1OC (single isomer, unassigned) [Example 73] | 230 | 7.51 | 6.11 |  | 5.84 | 539
6 | COc1cncc([C@@H]2C[C@]2(C(=O)NS(=O)(=O)c2cccc3nc(C)ccc23)c2cc(C)ccc2OC)n1 (single isomer, unassigned) [Example 74] | 222 | 6.65 | 6.13 | 545 | 5.89 | 188
7 | COc1cncc([C@H]2C[C@@]2(C(=O)NS(=O)(=O)c2cccc3nc(C)ccc23)c2cc(C)ccc2OC)n1 (single isomer, unassigned) [Example 75] | 402 | 7.44 | 6.20 |  | 5.78 | 939
8 | COc1ccc(C)cc1[C@@]1(C(=O)NS(=O)(=O)c2cccc3nc(C)ccc23)C[C@H]1c1ccc(C)nc1OC (single isomer, unassigned) [Example 85] | 206 | 7.61 | 6.09 |  | 6.00 | 786
9 | COc1ccc(C)cc1[C@]1(C(=O)NS(=O)(=O)c2cccc3nc(C)ccc23)C[C@@H]1c1ccc(C)nc1OC (single isomer, unassigned) [Example 86] | 176 | 7.62 | 5.84 |  | 5.66 | 
10 | COc1ccc(C)cc1[C@@]1(C(=O)NS(=O)(=O)c2cccc3nc(C)ccc23)C[C@H]1c1ccc(C(C)C)nc1OC (single isomer, unassigned) [Example 87] | 271 | 8.16 | 6.78 |  | 6.34 | 881
11 | COc1ccc(C)cc1[C@]1(C(=O)NS(=O)(=O)c2cccc3nc(C)ccc23)C[C@@H]1c1ccc(C(C)C)nc1OC (single isomer, unassigned) [Example 88] | 275 | 7.90 | 6.27 |  | 5.93 | 910
12 | COc1ccc(C)cc1[C@@]1(C(=O)NS(=O)(=O)c2cccc3nc(C)ccc23)C[C@H]1c1cnc(C)cn1 (single isomer, unassigned) [Example 91] | 138 | < 6.10 | 5.36 | 579 | 5.28 | 226
13 | COc1ccc(C)cc1[C@]1(C(=O)NS(=O)(=O)c2cccc3nc(C)ccc23)C[C@@H]1c1cnc(C)cn1 (single isomer, unassigned) [Example 92] | 187 | 7.06 | 5.94 |  | 5.67 | 653
14 | COc1ccc([C@@H]2C[C@]2(C(=O)NS(=O)(=O)c2cccc3nc(C)ccc23)c2cc(C)ccc2OC)c(OC)n1 (single isomer, unassigned) [Example 93] | 271 | 7.37 | 6.88 |  | 6.57 | 491
15 | COc1nccc([C@H]2C[C@@]2(C(=O)NS(=O)(=O)c2cccc3nc(C)ccc23)c2cc(C)ccc2OC)n1 (single isomer, unassigned) [Example 98] | 201 | 7.68 | 6.09 |  | 5.84 | 
16 | COc1nccc([C@@H]2C[C@]2(C(=O)NS(=O)(=O)c2cccc3nc(C)ccc23)c2cc(C)ccc2OC)n1 (single isomer, unassigned) [Example 99] | 126 | < 6.00 | 5.56 | 509 | 5.40 | 180
17 | COc1ccc(C)cc1[C@]1(C(=O)NS(=O)(=O)c2cccc3nc(C)ccc23)C[C@@H]1c1cnc(C)c(F)c1 (single isomer, unassigned) [Example 100] | 207 | 6.94 | 5.56 |  | 5.35 | 
18 | COc1ccc(C)cc1[C@@]1(C(=O)NS(=O)(=O)c2cccc3nc(C)ccc23)C[C@H]1c1cnc(C)c(F)c1 (single isomer, unassigned) [Example 101] | 199 | 6.83 | 6.05 | 842 | 6.00 | 243
19 | COc1ccc(C)cc1[C@]1(C(=O)NS(=O)(=O)c2cccc3nc(C)ccc23)CC1c1cccc(Cl)n1 (stereo in doubt) [Example 105, (1S,2S)-2-(6-chloropyridin-2-yl)-1-(2-methoxy-5-methylphenyl)-N-(2-methylquinoline-5-sulfonyl)cyclopropane-1-carboxamide] | 296 | 8.51 | 6.56 |  | 5.84 | 
20 | CCOc1nc(C2C[C@@]2(C(=O)NS(=O)(=O)c2cccc3nc(C)ccc23)c2cc(C)ccc2OC)ccc1F (stereo in doubt) [Example 106, (1S,2S)-2-(6-ethoxy-5-fluoropyridin-2-yl)-1-(2-methoxy-5-methylphenyl)-N-(2-methylquinoline-5-sulfonyl)cyclopropane-1-carboxamide] | 188 | 7.94 | 6.65 |  |  | 
21 | COc1ccc(C)cc1[C@]1(C(=O)NS(=O)(=O)c2cccc3nc(C)ccc23)C[C@@H]1c1ccc(C)nc1 [Example 11, (1S,2R)-1-(2-methoxy-5-methylphenyl)-2-(6-methylpyridin-3-yl)-N-(2-methylquinoline-5-sulfonyl)cyclopropane-1-carboxamide] | 214 | 7.31 | 5.55 |  | 5.34 | 679
